In one data set the test system is human donor lenses. To be noted: ex-vivo; cited from earlier work.
For the next data set, the system named is mouse lenses. To be noted: ex-vivo; cited from earlier work.
Data set [1] in a line: Solubility profile of LACE. It is filed as physicochemical.
Another data set can be described thus: Solution pH of LACE. It is filed as physicochemical.
The nature of the next data set: Log P of LACE. It is filed as physicochemical.
A short description of a further data set: Hygroscopicity of LACE. It is filed as physicochemical.
The nature of data set [2]: Osmolality of EV06 compositions adjusted with glycerol. It is filed as physicochemical. The procedure: The requisite osmolality range for drug-containing formulations and placebo is 280-320 mOsm/kg. Preferably, all LACE formulations need to be within 290-310 mOsm/Kg.
A series of placebos was prepared. All placebos, and the LACE-containing solutions that were subsequently prepared, contained the following, with varying amounts of Glycerol: • 0.5% (5 mg/g) Alanine • 0.005% (0.05 mg/g) Benzalkonium Chloride • Small amounts of 1 N Sodium Hydroxide, 1 N Hydrochloric Acid, to adjust pH to 4.5 • Water for Injection (added for final weight)
Target for Total Osmolality was 300 mOsm/kg.
Accordingly, a full series of solutions was prepared with slightly altered target osmolalities for the solutions without LACE, and therefore different target glycerol contents. All solutions were prepared using the same Alanine/Benzalkonium Chloride, pH 4.5 stock solution used in the placebos, so that the final composition was consistently: […]

Data set [3] is described as follows: Degradation of LACE formulation in storage (HPLC). It counts as physicochemical. From the text:
An issue that has rendered formulation of LACE problematic has been the propensity to destabilize by ring-opening of the dithiolane linkage to form oxidized species that compromise the activity of the molecule.

[4] abbreviates: Applicant's earlier observations.

On to `O[C@H](CS)[C@H](O)CS` (racemic) [dithiothreitol (DTT), dithiothreitol], for which the Lens softening result in the data set with human donor lenses is given as “lens softening can be induced pharmacologically”.
On to `O=C(O)CCCC[C@@H]1CCSS1` (racemic) [lipoic acid], for which the Lens softening entry in the data set on mouse lenses is on record as “lens softening can be induced pharmacologically”.
As for `C[N+](C)(C)CCOC(=O)CCCC[C@@H]1CCSS1` [LACE, Lipoic acid choline ester], the Solubility in acetonitrile in data set [1] (acetonitrile) is over 4 mg/mL in acetonitrile. In addition, in data set [1] (water), the Solubility in water is listed as over 50 mg/mL in water. The “Solution pH” value in the data set “Solution pH of LACE” is 7-7.5. Moreover, the log partition coefficient (Log P) in “Log P of LACE” is recorded as under 2. Also, the Hygroscopicity result in the data set “Hygroscopicity of LACE” is “Highly hygroscopic”. Further, in data set [2] (setting [4]), the “Additional osmolality for every 1% LACE” value is recorded as 44-55 mOsm/kg and the “Additional osmolality for every 1% LACE, average” value is listed as 48 mOsm/kg. Further, the “Effect of LACE on osmolality for every 1%” value in data set [2] (from Table 7 series) was 57-60 mOsm/kg. In data set [3] (refrigerated temperatures), the Degradation in storage result was “rapid oxidation occurs in storage as early as 1 week”. The Degradation in storage entry in data set [3] (room temperature) is “rapidly degrades into oxidized species”.

In general, Log P refers to the decadic logarithm of the partition coefficient of the neutral form, usually between octanol and water.
